We go through one molecule from patent US10532053B2, “Histone deacetylase inhibitor, and preparation method and use thereof” (GUANGDONG ZHONGSHENG PHARMACEUTICAL CO., LTD, priority 2015, dated 2020).

Each structure is given as a SMILES string.

For data set [1], the system named is acetylation level of HDAC substrate (Ac-α-tubulin, Ac-H3). Description: Western blot assay for detecting the level of acetylated proteins. It is filed as cell-based. The settings on record: HCT116 cells (FIG. 3) or MV4-11 cells (FIG. 4). As to the method:
The compounds or the positive control compound were added into each group of cells already adherent to the walls (2×10^6 HCT116 cells or 5×10^6 MV4-11 cells) at a designed concentration. After treatment for 4 hours, trypsin was added for digestion, followed by collecting the cells. After washing with cold PBS twice, the cells were lysed by adding RIPA lysis solution (which was purchased from Beyotime, Art. No.: P0013B, adding 1 mM PMSF before use), allowing for lysis on ice for 30 minutes while vortexing at intervals. The lysate was subjected to ultrasonic treatment on an ice bath (ultrasonicated for 3 seconds and repeated 5 times for each group at an interval of 10 seconds). The supernatant was collected by centrifugation at 12,000 g for 20 min at 4° C. and then mixed the SDS-PAGE loading buffer (purchased from Beyotime, Art. No.: P0015F). The mixture was heated in boiling water for 5 minutes to obtain a protein sample. The protein concentration of the sample was quantified by BCA method. 20 […] total protein from each group was subjected to 15% SDS-PAGE electrophoresis, and 5μl of a pre-stained protein marker (purchased from Thermo, Art. No.: 26616) was loaded to an additional selective lane in order to compare protein molecular weights as well as to detect the transmembrane result. When the bromophenol blue bands ran close to the bottom of the gel, the electrophoresis was terminated and the proteins on the gel were transferred to a PVDF membrane at a pore size of 0.22 μm. After 1.5 hours of transmembrane at a constant current of 200 mA, the PVDF membrane was removed and blocked in 5% skimmed milk for 1 hour. After completion of blocking, the membrane was incubated with the primary antibody (Ac-H3 antibody was purchased from Santa Cruz, Art. No.: sc-56616; Ac-α-tubulin antibody was purchased from Santa Cruz, Art. No.: sc-23950) overnight at 4° C. and then washed with TBS/T for 10 minutes for 3 times. The membrane was incubated with the horseradish peroxidase-coupled secondary antibody at room temperature for 1 hour, and then washed with TBS/T for 10 minutes for 3 times. After washing with TBS for 5 minutes, the membrane was exposed and developed by using a film in the darkroom. The detected GAPDH protein was an internal reference protein (GAPDH antibody was purchased from ZSGB-Bio, Art. No.: TA-08).
For orientation: Immunoblotting shows a protein as a band on a membrane.

Data set [2] in a line: Assay on the bioavailability in SD rats (plasma, LC-MS/MS). It is filed as in vivo. The settings on record: for Area under the curve / Clearance rate / Distribution volume / Half-life / Maximum plasma concentration: dose 12 mg/kg (Table 6).
The next data set relates to HCT116 cells. The experiment in a line: Therapeutic effect on the colon cancer HCT116 subcutaneous tumor model (intragastric). The settings on record: 8 times, vs solvent group.
A further data set deals with MV4-11 cells. Description: Therapeutic effect on the MV4-11 acute myeloid leukemia model. It is filed as in vivo, NOD/SCID mice. The settings on record: MV4-11 model, 50 mg/kg intravenously once every other day, 12 times.
Another data set addresses T1, HDAC6 (Homo sapiens, UniProt Q9UBN7).
T1 sequence (Q9UBN7 1-1215): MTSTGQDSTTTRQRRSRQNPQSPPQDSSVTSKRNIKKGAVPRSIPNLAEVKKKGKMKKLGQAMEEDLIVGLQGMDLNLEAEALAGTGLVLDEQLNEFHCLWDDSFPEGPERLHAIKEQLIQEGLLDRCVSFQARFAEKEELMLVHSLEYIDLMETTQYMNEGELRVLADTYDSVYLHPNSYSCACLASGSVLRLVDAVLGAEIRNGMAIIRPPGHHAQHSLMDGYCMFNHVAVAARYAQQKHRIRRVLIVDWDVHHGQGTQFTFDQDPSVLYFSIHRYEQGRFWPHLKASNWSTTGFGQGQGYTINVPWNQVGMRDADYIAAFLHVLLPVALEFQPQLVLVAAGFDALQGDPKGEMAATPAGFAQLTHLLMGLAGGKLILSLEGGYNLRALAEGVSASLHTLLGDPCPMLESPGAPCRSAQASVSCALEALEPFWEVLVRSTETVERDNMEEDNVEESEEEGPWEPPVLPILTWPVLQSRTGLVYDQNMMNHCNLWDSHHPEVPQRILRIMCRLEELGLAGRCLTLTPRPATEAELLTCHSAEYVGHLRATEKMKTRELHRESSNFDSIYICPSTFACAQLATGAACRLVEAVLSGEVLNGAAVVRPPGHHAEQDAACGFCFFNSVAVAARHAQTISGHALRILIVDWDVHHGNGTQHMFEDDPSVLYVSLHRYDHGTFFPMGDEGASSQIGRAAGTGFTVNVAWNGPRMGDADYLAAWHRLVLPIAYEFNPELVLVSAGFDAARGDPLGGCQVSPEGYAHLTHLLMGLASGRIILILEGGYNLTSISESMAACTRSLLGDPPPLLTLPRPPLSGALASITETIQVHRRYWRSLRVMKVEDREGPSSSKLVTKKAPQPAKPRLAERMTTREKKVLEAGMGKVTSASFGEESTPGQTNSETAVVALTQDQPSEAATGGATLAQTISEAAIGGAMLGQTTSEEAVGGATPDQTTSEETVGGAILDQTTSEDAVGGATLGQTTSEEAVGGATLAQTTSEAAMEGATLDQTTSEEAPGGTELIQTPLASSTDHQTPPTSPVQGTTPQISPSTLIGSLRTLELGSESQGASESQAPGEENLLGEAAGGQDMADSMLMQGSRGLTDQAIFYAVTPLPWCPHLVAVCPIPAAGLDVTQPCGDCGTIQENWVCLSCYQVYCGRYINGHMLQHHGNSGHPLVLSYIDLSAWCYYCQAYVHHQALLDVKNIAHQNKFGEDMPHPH
Description: HDAC inhibitory activity, fluorescence-coupled acetylated peptide substrate assay. It is filed as biochemical.

As to `COc1ccc(N(C)c2nc(C)nc3ccccc23)cc1OCCCC(=O)NO` [III-2, N-hydroxy-4-(2-methoxy-5-(methyl(2-methyl-4-quinazolinyl)amino)phenoxy) butanamide], in data set [1], the “acetylation of H3 (Ac-H3)” value is on record as “deacetylation of Ac-H3 by the compound III-2 was also demonstrated” and the “acetylation of α-tubulin” value is given as “up-regulate the acetylated α-tubulin protease in a dose-dependent manner”. For the same molecule, in data set [2] (intravenous administration), the “Area under the curve” value turned out to be 2434.117 μg/L · h, the Clearance rate came out at 116.8 mL/min/kg, the Distribution volume is on record as 61.263 L/kg and the Half-life was determined as 7.658 h. This molecule came in with a Maximum plasma concentration in data set [2] (intravenous administration) of 2213.217 µg/L. In data set [2] (oral administration), the Bioavailability is recorded as 47.0%, the “Area under the curve” value was 1242.234 μg/L · h, the Clearance rate was found to be 214.62 mL/min/kg and the Distribution volume came out at 154.811 L/kg. In data set [2] (oral administration), this molecule registered a Half-life of 9.62 h and a Maximum plasma concentration of 238.133 µg/L. Moreover, the tumor inhibitory rate in the data set with HCT116 cells (6.25 mg/kg intragastrically once every other day) is on record as 51.28%. The molecule also returned a tumor inhibitory rate in the data set on HCT116 cells (12.5 mg/kg intragastrically once every other day) of 58.64%. In addition, the tumor inhibitory rate with HCT116 cells (25 mg/kg intragastrically once every other day) is given as 60.37%. In the data set on HCT116 cells (50 mg/kg intragastrically once every other day), this molecule displayed a tumor inhibitory rate of 66.05%. The “activity compared with positive control SAHA” value in the data set with MV4-11 cells is “superior to that of the positive control group SAHA”. For the same molecule, in the data set with MV4-11 cells (compared with blank control, P<0.01), the tumor growth entry is listed as “significantly inhibited tumor growth”. The IC50 (as a rule, the concentration that inhibits the measured activity by half) at HDAC6 (Table 2) was 10 to 100 nM. The molecule further returned an IC50 against HDAC6 (Table 4, Class IIb) of 17 ± 2 nM.
